Results as given in ChEMBL document CHEMBL5137068, “Discovery of Hexahydrofuro[3,2-b]furans as New Kinase-Selective and Orally Bioavailable JAK3 Inhibitors for the Treatment of Leukemia Harboring a JAK3 Activating Mutant” (J Med Chem, 2022).
The source made the active and inactive calls. No cut-off for these calls is given here.

Legend:
[1] = target: NUAK family SNF1-like kinase 1 (Homo sapiens) (UniProt O60285); experiment: Inhibition of human ARK5 at 0.5 uM assessed as competition rate relative to control
[2] = target: T1, Tyrosine-protein kinase JAK3 (Homo sapiens) (UniProt P52333); experiment: Inhibition of JAK3 activation in human U-937 cells assessed as decrease in P-STAT5 at 100 uM by Western blot analysis; assay type: cell-based; conditions: time 0-24 hrs, TDE = time-dependent effect
T1 sequence (whole entry): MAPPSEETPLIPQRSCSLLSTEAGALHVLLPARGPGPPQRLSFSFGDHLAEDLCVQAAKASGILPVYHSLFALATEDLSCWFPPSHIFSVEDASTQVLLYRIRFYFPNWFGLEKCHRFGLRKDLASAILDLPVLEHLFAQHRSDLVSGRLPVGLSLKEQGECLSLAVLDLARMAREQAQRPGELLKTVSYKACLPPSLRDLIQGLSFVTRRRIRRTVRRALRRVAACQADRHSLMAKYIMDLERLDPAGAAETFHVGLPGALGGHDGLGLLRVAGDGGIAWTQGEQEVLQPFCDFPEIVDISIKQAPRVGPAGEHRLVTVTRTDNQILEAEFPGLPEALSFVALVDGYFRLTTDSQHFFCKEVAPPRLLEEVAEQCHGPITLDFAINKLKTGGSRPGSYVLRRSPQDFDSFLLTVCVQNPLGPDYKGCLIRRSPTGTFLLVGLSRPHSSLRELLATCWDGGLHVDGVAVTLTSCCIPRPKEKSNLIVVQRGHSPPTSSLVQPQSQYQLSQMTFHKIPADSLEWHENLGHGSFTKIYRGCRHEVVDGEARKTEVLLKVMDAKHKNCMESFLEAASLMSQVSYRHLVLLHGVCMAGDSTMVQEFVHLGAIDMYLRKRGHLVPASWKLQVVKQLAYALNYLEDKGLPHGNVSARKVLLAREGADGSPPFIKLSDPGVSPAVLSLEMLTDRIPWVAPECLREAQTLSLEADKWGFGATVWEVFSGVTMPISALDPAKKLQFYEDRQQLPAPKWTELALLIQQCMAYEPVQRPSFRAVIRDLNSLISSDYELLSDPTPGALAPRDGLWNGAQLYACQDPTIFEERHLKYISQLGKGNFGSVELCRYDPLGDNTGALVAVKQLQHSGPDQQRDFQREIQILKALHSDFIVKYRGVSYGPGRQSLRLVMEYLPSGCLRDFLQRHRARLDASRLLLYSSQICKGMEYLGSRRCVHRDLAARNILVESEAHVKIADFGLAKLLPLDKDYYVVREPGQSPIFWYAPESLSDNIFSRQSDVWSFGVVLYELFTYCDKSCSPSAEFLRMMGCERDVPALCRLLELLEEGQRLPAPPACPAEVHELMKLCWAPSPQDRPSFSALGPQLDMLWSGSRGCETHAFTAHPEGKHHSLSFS

[3] = target: T1, Tyrosine-protein kinase JAK3 (Homo sapiens); experiment: Inhibition of JAK3 activation in human U-937 cells assessed as decrease in P-STAT5 incubated for 0 to 24 hrs by Western blot analysis; assay type: cell-based; conditions: time 0-24 hrs, DDE = dose-dependent effect
U-937 [4] = experiment: Antitumor activity against human U-937 cells xenografted in po dosed CB17-SCID mouse assessed as tumor growth inhibition twice daily for 10 days; assay type: functional, organism-based; conditions: time 10.0 day, DDE = dose-dependent effect
[5] = target: Tyrosine-protein kinase JAK1 (Homo sapiens, UniProt P23458); experiment: Inhibition of human JAK1
[6] = target: Tyrosine-protein kinase ITK/TSK (Homo sapiens) (UniProt Q08881); experiment: Inhibition of ITK (unknown origin) at 0.5 uM relative to control
[7] = target: Cytoplasmic tyrosine-protein kinase BMX (Homo sapiens) (UniProt P51813); experiment: Inhibition of BMX (unknown origin) at 0.5 uM relative to control
[8] = Half life in 12 hr fasted SPF Sprague-Dawley rat at 5 mg/kg, iv upon 2 hrs fasting post-administration measured upto 24 hrs; assay type: ADME, organism-based; conditions: in vivo
[9] = target: NUAK family SNF1-like kinase 1 (Homo sapiens) (UniProt O60285); experiment: Inhibition of human ARK5 at 0.5 uM relative to control
[10] = target: Tyrosine-protein kinase Blk (Homo sapiens) (UniProt P51451); experiment: Inhibition of BLK (unknown origin) at 0.5 uM relative to control
[11] = target: Cyclin-Y/Cyclin-dependent kinase 16 (Homo sapiens) (UniProt Q00536+Q8ND76); experiment: Inhibition of human CDK16/cyclin-Y at 0.5 uM relative to control; assay type: protein-complex assay
U-937 [12] = experiment: Induction of cell cycle arrest in human U-937 cells assessed as accumulation at G2/M phase at 100 nM measured after 24 hrs by propidium iodide staining based flow cytometric analysis (reference value: 21.41%); assay type: functional
[13] = target: NUAK family SNF1-like kinase 1 (Homo sapiens, UniProt O60285); experiment: Inhibition of human ARK5
[14] = target: T2, Tyrosine-protein kinase JAK3 (Homo sapiens, UniProt P52333)
T2 sequence (P52333 whole entry): T1 sequence (whole entry)
Description: Inhibition of GST tagged recombinant human JAK3 expressed in baculovirus infection system by FRET assay

[15] = target: Non-receptor tyrosine-protein kinase TYK2 (Homo sapiens, UniProt P29597); experiment: Inhibition of human TYK2
[16] = target: T3, Signal transducer and activator of transcription 5A (Homo sapiens) (UniProt P42229); experiment: Inhibition of STAT5 in human U-937 cells assessed as decrease in P-STAT5 phosphorylation at 200 uM pretreated for 10 hrs followed by compound washout by immunoblotting analysis; assay type: cell-based
T3 sequence (whole entry): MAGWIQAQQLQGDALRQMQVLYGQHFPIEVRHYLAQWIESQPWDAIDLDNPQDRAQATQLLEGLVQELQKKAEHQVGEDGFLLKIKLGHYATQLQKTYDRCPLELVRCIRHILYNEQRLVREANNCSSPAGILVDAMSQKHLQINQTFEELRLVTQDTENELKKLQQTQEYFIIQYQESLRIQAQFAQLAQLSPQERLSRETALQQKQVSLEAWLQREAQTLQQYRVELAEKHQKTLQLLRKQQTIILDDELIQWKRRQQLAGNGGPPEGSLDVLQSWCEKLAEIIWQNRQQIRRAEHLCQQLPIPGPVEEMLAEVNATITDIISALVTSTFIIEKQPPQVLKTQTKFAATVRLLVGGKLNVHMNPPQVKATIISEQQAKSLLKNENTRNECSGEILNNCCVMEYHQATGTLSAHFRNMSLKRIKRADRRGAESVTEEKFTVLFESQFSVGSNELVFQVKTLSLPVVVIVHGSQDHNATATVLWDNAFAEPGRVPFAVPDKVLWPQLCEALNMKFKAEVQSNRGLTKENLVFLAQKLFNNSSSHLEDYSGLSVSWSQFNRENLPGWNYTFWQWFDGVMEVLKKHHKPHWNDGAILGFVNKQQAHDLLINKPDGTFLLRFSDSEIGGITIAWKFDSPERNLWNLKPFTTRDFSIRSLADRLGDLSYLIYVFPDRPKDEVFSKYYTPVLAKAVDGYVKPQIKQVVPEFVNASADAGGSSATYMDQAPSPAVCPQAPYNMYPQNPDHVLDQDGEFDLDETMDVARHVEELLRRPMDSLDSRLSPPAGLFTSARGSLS

BaF3 = experiment: cells; conditions: Mus musculus, BaF3, 72 h

NUAK family SNF1-like kinase 1 (Homo sapiens), sequence (O60285 whole entry): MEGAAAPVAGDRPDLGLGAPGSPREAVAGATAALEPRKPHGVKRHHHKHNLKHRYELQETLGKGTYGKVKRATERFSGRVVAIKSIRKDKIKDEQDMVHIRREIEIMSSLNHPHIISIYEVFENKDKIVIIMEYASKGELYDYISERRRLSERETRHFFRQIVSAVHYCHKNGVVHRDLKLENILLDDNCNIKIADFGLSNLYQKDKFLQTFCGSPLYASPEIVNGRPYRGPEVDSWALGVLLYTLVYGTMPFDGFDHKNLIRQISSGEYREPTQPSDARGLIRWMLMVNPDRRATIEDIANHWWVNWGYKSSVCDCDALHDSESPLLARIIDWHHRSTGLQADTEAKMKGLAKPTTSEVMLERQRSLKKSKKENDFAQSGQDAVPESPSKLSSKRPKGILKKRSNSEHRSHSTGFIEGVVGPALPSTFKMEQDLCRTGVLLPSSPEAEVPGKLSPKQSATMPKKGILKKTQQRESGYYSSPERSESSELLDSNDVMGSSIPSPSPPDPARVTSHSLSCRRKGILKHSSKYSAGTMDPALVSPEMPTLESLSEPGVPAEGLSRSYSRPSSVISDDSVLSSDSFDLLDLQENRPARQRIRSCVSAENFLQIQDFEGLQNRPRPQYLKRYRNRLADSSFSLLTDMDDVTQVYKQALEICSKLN
Non-receptor tyrosine-protein kinase TYK2, sequence (P29597 whole entry): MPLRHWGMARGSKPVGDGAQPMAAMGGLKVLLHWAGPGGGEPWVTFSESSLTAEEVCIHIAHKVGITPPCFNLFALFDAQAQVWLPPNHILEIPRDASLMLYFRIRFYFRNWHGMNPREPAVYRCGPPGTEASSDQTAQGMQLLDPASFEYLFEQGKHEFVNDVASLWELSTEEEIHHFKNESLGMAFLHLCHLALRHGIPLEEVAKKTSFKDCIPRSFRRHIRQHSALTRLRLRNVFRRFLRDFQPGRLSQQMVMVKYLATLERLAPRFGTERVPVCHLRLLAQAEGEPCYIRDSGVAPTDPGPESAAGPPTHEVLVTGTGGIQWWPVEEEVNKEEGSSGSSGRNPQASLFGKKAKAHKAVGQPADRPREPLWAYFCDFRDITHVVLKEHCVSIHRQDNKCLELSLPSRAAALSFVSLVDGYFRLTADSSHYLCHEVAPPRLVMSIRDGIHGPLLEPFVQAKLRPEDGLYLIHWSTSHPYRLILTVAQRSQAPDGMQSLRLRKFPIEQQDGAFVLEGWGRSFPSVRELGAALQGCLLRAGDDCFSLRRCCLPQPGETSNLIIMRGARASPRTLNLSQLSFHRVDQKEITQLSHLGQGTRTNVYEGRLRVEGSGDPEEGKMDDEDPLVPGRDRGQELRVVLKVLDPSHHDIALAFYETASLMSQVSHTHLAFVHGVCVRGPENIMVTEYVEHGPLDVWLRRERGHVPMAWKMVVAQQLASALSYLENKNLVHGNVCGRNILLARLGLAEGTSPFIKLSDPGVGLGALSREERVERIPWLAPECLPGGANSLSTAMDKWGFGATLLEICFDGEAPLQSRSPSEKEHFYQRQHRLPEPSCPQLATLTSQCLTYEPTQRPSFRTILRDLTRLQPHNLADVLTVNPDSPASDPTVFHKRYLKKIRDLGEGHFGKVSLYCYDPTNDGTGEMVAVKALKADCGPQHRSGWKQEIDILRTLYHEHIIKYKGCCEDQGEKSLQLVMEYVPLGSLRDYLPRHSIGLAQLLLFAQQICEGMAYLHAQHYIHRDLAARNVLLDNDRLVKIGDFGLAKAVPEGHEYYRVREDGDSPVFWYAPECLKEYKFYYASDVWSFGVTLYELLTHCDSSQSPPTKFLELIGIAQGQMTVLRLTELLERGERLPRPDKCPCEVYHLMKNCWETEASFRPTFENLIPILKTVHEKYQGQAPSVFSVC
Tyrosine-protein kinase ITK/TSK (Homo sapiens), sequence (Q08881 whole entry): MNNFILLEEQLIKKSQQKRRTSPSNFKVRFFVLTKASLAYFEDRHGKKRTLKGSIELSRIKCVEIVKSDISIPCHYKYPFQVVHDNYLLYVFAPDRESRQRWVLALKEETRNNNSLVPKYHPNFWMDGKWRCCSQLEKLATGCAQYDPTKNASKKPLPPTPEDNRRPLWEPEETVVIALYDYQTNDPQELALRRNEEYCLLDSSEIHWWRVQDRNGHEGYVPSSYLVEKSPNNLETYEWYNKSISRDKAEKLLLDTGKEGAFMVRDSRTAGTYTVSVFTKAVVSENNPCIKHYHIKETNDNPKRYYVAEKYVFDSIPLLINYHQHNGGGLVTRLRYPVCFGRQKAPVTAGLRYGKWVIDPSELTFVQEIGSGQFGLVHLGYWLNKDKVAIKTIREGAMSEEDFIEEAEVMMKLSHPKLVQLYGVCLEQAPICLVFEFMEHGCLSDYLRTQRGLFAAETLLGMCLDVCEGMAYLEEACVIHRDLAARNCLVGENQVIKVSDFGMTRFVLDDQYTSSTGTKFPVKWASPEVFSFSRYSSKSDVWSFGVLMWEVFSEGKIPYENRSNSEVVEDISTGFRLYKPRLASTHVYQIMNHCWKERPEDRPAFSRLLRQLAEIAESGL
Tyrosine-protein kinase Blk (Homo sapiens), sequence (P51451 2-505 limits assumed): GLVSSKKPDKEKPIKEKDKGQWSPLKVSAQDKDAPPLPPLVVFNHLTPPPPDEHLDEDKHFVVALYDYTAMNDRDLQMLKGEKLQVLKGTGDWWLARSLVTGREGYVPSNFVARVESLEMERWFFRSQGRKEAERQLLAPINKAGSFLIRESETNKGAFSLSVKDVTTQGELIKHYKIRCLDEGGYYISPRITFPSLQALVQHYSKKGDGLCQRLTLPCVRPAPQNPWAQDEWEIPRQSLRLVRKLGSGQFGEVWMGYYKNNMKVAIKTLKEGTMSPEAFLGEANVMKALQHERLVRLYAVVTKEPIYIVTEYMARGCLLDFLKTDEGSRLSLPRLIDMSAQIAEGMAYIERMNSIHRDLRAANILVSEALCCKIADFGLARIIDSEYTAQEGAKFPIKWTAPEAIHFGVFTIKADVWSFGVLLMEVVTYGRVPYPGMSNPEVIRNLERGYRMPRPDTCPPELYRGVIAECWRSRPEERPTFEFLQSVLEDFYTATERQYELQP
Cytoplasmic tyrosine-protein kinase BMX (Homo sapiens), sequence (P51813 whole entry): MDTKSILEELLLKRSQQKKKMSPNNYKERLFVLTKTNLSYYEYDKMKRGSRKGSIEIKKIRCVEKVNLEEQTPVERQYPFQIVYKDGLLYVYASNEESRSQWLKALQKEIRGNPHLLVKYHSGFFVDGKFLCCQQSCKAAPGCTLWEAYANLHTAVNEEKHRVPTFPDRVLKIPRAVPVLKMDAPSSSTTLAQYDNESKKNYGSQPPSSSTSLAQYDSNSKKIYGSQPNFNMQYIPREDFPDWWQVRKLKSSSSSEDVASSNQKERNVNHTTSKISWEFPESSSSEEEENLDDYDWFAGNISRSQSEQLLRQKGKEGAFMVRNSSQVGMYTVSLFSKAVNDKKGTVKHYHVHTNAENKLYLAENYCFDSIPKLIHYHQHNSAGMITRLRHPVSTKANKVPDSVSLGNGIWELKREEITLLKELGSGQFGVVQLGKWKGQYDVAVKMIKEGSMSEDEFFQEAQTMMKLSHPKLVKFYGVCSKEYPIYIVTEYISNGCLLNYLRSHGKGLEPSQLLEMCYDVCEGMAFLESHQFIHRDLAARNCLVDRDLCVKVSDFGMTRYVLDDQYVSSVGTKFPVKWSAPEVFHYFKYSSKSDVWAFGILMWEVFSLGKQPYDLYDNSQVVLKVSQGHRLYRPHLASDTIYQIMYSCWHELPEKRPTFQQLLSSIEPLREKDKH
NUAK family SNF1-like kinase 1, sequence (O60285 whole entry): as the sequence (O60285 whole entry) above
Tyrosine-protein kinase JAK1, sequence (P23458 whole entry): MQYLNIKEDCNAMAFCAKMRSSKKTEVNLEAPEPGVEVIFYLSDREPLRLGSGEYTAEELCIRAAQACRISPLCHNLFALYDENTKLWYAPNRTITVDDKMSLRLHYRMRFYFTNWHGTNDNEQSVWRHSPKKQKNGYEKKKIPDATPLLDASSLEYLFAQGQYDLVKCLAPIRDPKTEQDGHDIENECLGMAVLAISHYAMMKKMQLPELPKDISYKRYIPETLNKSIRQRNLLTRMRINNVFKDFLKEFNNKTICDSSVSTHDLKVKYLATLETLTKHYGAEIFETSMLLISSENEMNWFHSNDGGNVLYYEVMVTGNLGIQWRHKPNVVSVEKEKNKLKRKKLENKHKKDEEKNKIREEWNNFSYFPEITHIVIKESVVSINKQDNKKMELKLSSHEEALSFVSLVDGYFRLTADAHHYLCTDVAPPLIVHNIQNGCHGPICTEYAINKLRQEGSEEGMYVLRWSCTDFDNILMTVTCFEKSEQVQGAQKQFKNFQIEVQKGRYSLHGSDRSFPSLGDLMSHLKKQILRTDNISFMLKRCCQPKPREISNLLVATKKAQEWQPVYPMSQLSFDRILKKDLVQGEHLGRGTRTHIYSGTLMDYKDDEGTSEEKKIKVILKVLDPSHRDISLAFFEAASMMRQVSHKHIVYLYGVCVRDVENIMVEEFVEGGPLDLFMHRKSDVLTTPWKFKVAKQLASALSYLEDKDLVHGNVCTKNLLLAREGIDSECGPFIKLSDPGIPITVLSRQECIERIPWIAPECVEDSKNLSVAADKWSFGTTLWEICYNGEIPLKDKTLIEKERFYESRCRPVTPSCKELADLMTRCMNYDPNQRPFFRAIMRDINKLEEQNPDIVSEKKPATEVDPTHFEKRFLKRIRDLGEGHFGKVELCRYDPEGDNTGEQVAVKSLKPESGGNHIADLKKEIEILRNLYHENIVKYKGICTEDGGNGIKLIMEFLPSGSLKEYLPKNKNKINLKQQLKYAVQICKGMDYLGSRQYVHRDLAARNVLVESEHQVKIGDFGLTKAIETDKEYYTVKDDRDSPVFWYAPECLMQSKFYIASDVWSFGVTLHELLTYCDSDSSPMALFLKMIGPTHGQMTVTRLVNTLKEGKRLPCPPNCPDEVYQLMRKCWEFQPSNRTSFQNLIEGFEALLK

In the case of `C=CC(=O)Nc1cc(Nc2ncc(Cl)c(O[C@@H]3CO[C@H]4[C@@H]3OC[C@H]4OC)n2)ccc1N(C)CCN(C)C`, the inhibition [1] is reported as 70%, the inhibition [2] is reported as “Tde” and the inhibition [3] is reported as “Dde”. For the same compound, the Activity (U-937 [4]) was “Dde”, the IC50 [5] was 4730 nM and the inhibition [6] was 92%. For the same compound, the inhibition [7] was 71%, the half-life [8] was 54.6 min and the inhibition [9] was 11%. The inhibition [10] was 60%, the inhibition [11] was 30% and the Activity (U-937 [12]) was 17.86%. It also gave an IC50 [13] of 25 nM, an IC50 [14] of 1.2 nM and an IC50 [15] of 365 nM. The inhibition [16] was “Active” and the IC50 (BaF3) was 178 nM.
